Columns and labels:
[1] = tested on: vegetation and micro-organisms (algae, bryozoas, acorn barnacles, polichaetas); experiment: Example 3: antifouling paints on fibreglass panels immersed in seawater (dockyard of Genoa), comparison with MSB and Ciclor 98; details: for antifouling activity: 5% in paint, not associated with Cu2O (panels P4, P5, N), MBP and MTB more than Ciclor 98 (panel P7); for 2^ Controls after a four month exposure: 0.8% in hard-matrix antifouling paint, +Cu2O per Table V (panels P1, P2), seawater, Genoa; for antifouling effectiveness: in association with Cu2O (panels P1, P2 and P8), synergistic action
Excerpt: The compounds MBP and MTB were examined in different percentages, in hard-matrix antifouling formulations. The tests included the use of Ciclor 98, the use of the menadione sodium bisulphite (MSB) and a control panel (untreated), as is shown in Table V:
The prepared paints were applied to the fibreglass panels previously treated with a coating of epoxy paint and then immersed in seawater (dockyard of Genoa, Italy, 21/7/1999).
To determine the deposition or formation of vegetation and micro-organisms, both qualitatively and quantitatively, and to evaluate the antifouling activity of the samples, two different controls were carried out after two months (1^control) and after 4 months (2^control).

[2] = tested on: vegetation and micro-organisms (algae, bryozoas, acorn barnacles, polichaetas); experiment: Example 2: antifouling paints on fibreglass panels immersed in seawater (dockyard of Genoa), comparison with Ciclor 98; details: for 2^ Controls after a four month exposure: 5% in hard-matrix antifouling paint, no copper (panels P2, P3, P4), seawater, Genoa; for antifouling activity compared to commercial antifouling product Ciclor 98: hard-matrix paints, no copper, seawater Genoa
Excerpt: The compounds MBP and MTB were examined in different percentages, in hard-matrix antifouling formulations. The tests included the use of a common commercial antifouling product, Ciclor 98, which contains […] as active ingredient, largely used in the formulation of yatch paints, and a control panel (untreated, without biocide), as it is shown in Table III:
(§1) The prepared paints were applied to the fibreglass panels previously treated with a coating of epoxy paint and then immersed in seawater (dockyard of Genoa, Italy, 21/7/1999). To determine the deposition or formation of vegetation and micro-organisms, both qualitatively and quantitatively, and to evaluate the antifouling activity of the samples, two different controls were carried out after two months (1^control) and after 4 months (2^control).

[3] = tested on: vegetation and micro-organisms (algae, serpulidae, acorn barnacles, bryozoas); experiment: Example 1: antifouling paints on fibreglass panels immersed in seawater (dockyard of La Spezia); details: 5% in hard-matrix antifouling paint, +Cu2O (panels P34, P35)
Excerpt: The compounds MBP and MTB were examined in different percentages, singularly and/or in combination, in hard-matrix antifouling formulations containing or not containing copper, as reported in Table I:
as §1, with “different” for “prepared”, “La Spezia,” for “Genoa,”, “9/5/2000).” for “21/7/1999).”, “six” for “4”

Compound: CC1(S(=O)(=O)[O-])CC(=O)c2ccccc2C1=O.[Na+] (stereo not shown) [MSB, menadione sodium bisulphite, reference compound]
- antifouling activity [1]: did not show any antifouling activity

Compound: CC1(S(=O)(=O)O)CC(=O)c2ccccc2C1=O.Nc1nc(N)nc(N)n1 (stereo not shown) [MTB, menadione triaminotriazine bisulfite]
- 2^ Controls after a four month exposure [2]: Clean
- antifouling activity compared to commercial antifouling product Ciclor 98 [2]: increased antifouling activity
- 2^ Control after a six month exposure [3]: A few green algae
- 2^ Controls after a four month exposure [1]: Clean
- antifouling activity [1]: excellent antifouling activity
- antifouling effectiveness [1]: excellent antifouling effectiveness

Compound: C1CNCCN1.CC1(S(=O)(=O)O)CC(=O)c2ccccc2C1=O.CC1(S(=O)(=O)O)CC(=O)c2ccccc2C1=O (stereo not shown) [MBP, menadione (bis) piperazine bisulfite]
- 2^ Controls after a four month exposure [2]: Clean
- antifouling activity compared to commercial antifouling product Ciclor 98 [2]: increased antifouling activity
- 2^ Control after a six month exposure [3]: A few green algae
- 2^ Controls after a four month exposure [1]: Clean
- antifouling activity [1]: excellent antifouling activity
- antifouling effectiveness [1]: excellent antifouling effectiveness

Source: US6596064B2, “Biocidal-antifouling agents with low ecotoxicity index” (Luigi Stoppani S.p.A., priority 1999, dated 2003)
